“Also recorded” adds a separate entry of the source. Read-outs that look alike come from different tables or passages of the source.
What was measured:
Format in all cases: in vivo, Sprague–Dawley rats
P-gp [1] = assay: PET Logan graphical analysis of brain VT, baseline and after tariquidar P-gp block; details: for Kp: Sprague-Dawley; for Kp / Increase in cerebral distribution volume (VT) after tariquidar compared with baseline: rat; for P-gp substrate character: conclusion from tariquidar predosing studies in rats; for Increase in cerebral distribution volume (VT) after tariquidar compared with baseline: tariquidar 15 mg·kg^−1 predosing
Text: (§1) Following cannulation of the femoral vein, animals were positioned in pairs in a double LSO/LYSO layer high-resolution research tomograph (CTI/Siemens, Knoxville, TN, USA). First, for attenuation and scatter correction purposes, a transmission scan was acquired using a 740-MBq two-dimensional fan-collimated ^137Cs (662 keV) moving point source. Next, a dynamic emission scan was acquired immediately following administration of 17.1 ± 2.1 MBq (mean ± SD) ^11C]phenytoin to each rat. Two animals had one single ^11C]phenytoin scan; two animals had two consecutive scans, and two had three consecutive scans. Finally, all animals underwent an ^18F]FDG scan before being euthanized. Tariquidar, 15 mg·kg^−1, was used to completely block P-gp, while probenecid, 150 mg·kg^−1, was used to inhibit multi-resistant protein (MRP) efflux proteins. Tariquidar and probenecid were administered i.v. 20 min prior to the scan start as a 10-min infusion. All animals, except one, were scanned without any treatment prior to the first ^11C]phenytoin scan. Of the animals that had two scans, one underwent two post-tariquidar scans (animal 4, Table 1). […] Animals that underwent three consecutive scans had one baseline, one post probenecid and one post-tariquidar scan. During each scan, emission data were acquired for 60 min in list mode and rebinned into the following frame sequence: 7 × 10, 1 × 20, 3 × 30, 2 × 60, 2 × 150, 2 × 300 and 4 × 600 s. Following corrections for decay, dead time, attenuation, random and scatter, scans were reconstructed using a 3D ordinary Poisson ordered subsets expectation maximization algorithm. […] PET image data were analyzed using the freely available software package Amide 0.9 [31]. A magnetic resonance (MR)-based rat brain atlas was used to define five regions of interest (ROIs): the hippocampus, occipital cortex, parietal cortex, caudate putamen and cerebellum. The MR atlas including all ROIs was aligned visually with the summed ^18F]FDG image for each rat. ROIs were then projected onto all frames of all ^11C]phenytoin scans, resulting in ^11C]phenytoin time-activity curves for each scan and rat.
(§2) During each [^11C]phenytoin scan, arterial blood samples of 0.1 mL were taken at 20 and 40 s and at 1, 2, 5, 15, 30 and 60 min after [^11C]phenytoin injection. For animals that underwent three scans, the amount of blood withdrawn was reduced by replacing the two samples at 15 and 30 min with a single 20-min sample. Plasma was obtained by centrifugation at 4,000 rpm for 5 min at 4°C, and activity in both plasma and whole blood was measured in an automated 1282 Compugamma CS Universal Gamma Counter (LKB Wallac, Turku, Finland), cross-calibrated against the PET scanner. Standardized uptake values (SUVs) as a function of time were derived by normalizing measured radioactivity concentrations against injected dose and body weight.
(§3) To obtain a model independent estimate of the brain-to-plasma partition coefficient, often referred to as volume of distribution, Logan graphical analysis was used. Before Logan analysis, both brain and plasma concentrations were corrected for labeled metabolites. As metabolite fractions were not measured at each plasma or mid-frame time point, linear regression was used to estimate the fraction of intact ^11C]phenytoin at each time point.

P-gp [2] = assay: PET brain time-activity curves (SUV), baseline and after tariquidar P-gp block
Text: as §1, §2

[3] = test system: multi-resistant protein (MRP) efflux proteins; assay: PET Logan graphical analysis of brain VT after probenecid; details: for Kp: Sprague-Dawley, rat, iv, with probenecid 150 mg/kg i.v., after probenecid 150 mg·kg^−1 i.v., n = 2, metabolite-corrected
Text: as §1, §2, §3

Structure (SMILES): O=C1N[11C](=O)NC1(c1ccccc1)c1ccccc1 [[^11C]phenytoin]
- Kp (P-gp [1]; caudate putamen (relative to plasma), intravenous, baseline, n = 5, metabolite-corrected plasma input and brain data, read-out: VT (Logan), caudate putamen): 0.98 ± 0.08
- Kp (P-gp [1]; caudate putamen (relative to plasma), iv, with tariquidar 15 mg/kg i.v., after tariquidar 15 mg·kg^−1 i.v., n = 5, metabolite-corrected, read-out: VT (Logan), caudate putamen): 1.48 ± 0.12
- Kp (P-gp [1]; cerebellum (relative to plasma), intravenous, baseline, n = 5, metabolite-corrected plasma input and brain data, read-out: VT (Logan), cerebellum): 1.02 ± 0.08
- Kp (P-gp [1]; cerebellum (relative to plasma), iv, with tariquidar 15 mg/kg i.v., after tariquidar 15 mg·kg^−1 i.v., n = 5, metabolite-corrected, read-out: VT (Logan), cerebellum): 1.48 ± 0.09
- Kp (P-gp [1]; hippocampus (relative to plasma), intravenous, baseline, n = 5, metabolite-corrected plasma input and brain data, read-out: VT (Logan), hippocampus): 0.96 ± 0.09
- Kp (P-gp [1]; hippocampus (relative to plasma), iv, with tariquidar 15 mg/kg i.v., after tariquidar 15 mg·kg^−1 i.v., n = 5, metabolite-corrected, read-out: VT (Logan), hippocampus): 1.43 ± 0.07
- Kp (P-gp [1]; occipital cortex (relative to plasma), intravenous, baseline, n = 5, metabolite-corrected plasma input and brain data, read-out: VT (Logan), occipital cortex): 0.91 ± 0.06
- Kp (P-gp [1]; occipital cortex (relative to plasma), iv, with tariquidar 15 mg/kg i.v., after tariquidar 15 mg·kg^−1 i.v., n = 5, metabolite-corrected, read-out: VT (Logan), occipital cortex): 1.3 ± 0.11
- Kp (P-gp [1]; parietal cortex (relative to plasma), intravenous, baseline, n = 5, metabolite-corrected plasma input and brain data, read-out: VT (Logan), parietal cortex): 0.91 ± 0.08
- Kp (P-gp [1]; parietal cortex (relative to plasma), iv, with tariquidar 15 mg/kg i.v., after tariquidar 15 mg·kg^−1 i.v., n = 5, metabolite-corrected, read-out: VT (Logan), parietal cortex): 1.35 ± 0.11
- P-gp substrate character (P-gp [1]): rather weak P-gp substrate; also recorded: moderate P-gp substrate
- P-gp substrate character (P-gp [1]; listed as 11C]phenytoin): rather moderate affinity for P-gp
- Increase in cerebral distribution volume (VT) after tariquidar compared with baseline (P-gp [1]): 45%
- Increase in cerebral distribution volume (VT) after tariquidar compared with baseline (P-gp [1]; listed as 11C]phenytoin): about 45%
- Brain SUV at 60 min (corrected for metabolites) (P-gp [2]; baseline scans): around 0.2
- Maximum brain SUV (P-gp [2]; baseline scans): around 0.8
- Brain SUV at 60 min (corrected for metabolites) (P-gp [2]; post-tariquidar scans): ~0.3
- Maximum brain SUV (P-gp [2]; post-tariquidar scans): ~0.9
- Time of maximum brain concentration after bolus injection (P-gp [2]; rats): approximately 5 min
- Increase in brain SUV at 10 to 60 min after tariquidar (P-gp [2]; tariquidar 15 mg·kg^−1, rat, on average): about 50%
- Kp ([3]; caudate putamen (relative to plasma), read-out: VT (Logan), caudate putamen): 0.57 ± 0.01
- Kp ([3]; cerebellum (relative to plasma), read-out: VT (Logan), cerebellum): 0.61 ± 0.01
- Kp ([3]; hippocampus (relative to plasma), read-out: VT (Logan), hippocampus): 0.59
- Kp ([3]; occipital cortex (relative to plasma), read-out: VT (Logan), occipital cortex): 0.59
- Kp ([3]; parietal cortex (relative to plasma), read-out: VT (Logan), parietal cortex): 0.57 ± 0.03
- Change in VT after probenecid (interaction with MRP) ([3]; probenecid 150 mg·kg^−1, n = 2, animals in poor condition): no indication of an increase in VT
